Data from publication PMC11583123, “Linker Chemistry and Connectivity Fine-Tune the Immune Response and Kinetic Solubility of Conjugated NOD2/TLR7 Agonists” (Bioconjugate Chemistry, 2024).

Key:
[1] = target: T1, human TLR7 (Homo sapiens, UniProt Q9NYK1); test: HEK-Blue TLR7 NF-κB SEAP reporter assay; type: cell-based; settings: for EC50 / TLR7 agonistic activity (in words): HEK-Blue TLR7 cells; for EC50: 18 h, eight concentrations (1 nM to 10 μM), mean ± SEM; for TLR7 agonistic activity (in words): up to 10 μM
T1 construct: host or cells: HEK-Blue TLR7 (HEK293-derived)
T1 sequence (Q9NYK1 27-1049): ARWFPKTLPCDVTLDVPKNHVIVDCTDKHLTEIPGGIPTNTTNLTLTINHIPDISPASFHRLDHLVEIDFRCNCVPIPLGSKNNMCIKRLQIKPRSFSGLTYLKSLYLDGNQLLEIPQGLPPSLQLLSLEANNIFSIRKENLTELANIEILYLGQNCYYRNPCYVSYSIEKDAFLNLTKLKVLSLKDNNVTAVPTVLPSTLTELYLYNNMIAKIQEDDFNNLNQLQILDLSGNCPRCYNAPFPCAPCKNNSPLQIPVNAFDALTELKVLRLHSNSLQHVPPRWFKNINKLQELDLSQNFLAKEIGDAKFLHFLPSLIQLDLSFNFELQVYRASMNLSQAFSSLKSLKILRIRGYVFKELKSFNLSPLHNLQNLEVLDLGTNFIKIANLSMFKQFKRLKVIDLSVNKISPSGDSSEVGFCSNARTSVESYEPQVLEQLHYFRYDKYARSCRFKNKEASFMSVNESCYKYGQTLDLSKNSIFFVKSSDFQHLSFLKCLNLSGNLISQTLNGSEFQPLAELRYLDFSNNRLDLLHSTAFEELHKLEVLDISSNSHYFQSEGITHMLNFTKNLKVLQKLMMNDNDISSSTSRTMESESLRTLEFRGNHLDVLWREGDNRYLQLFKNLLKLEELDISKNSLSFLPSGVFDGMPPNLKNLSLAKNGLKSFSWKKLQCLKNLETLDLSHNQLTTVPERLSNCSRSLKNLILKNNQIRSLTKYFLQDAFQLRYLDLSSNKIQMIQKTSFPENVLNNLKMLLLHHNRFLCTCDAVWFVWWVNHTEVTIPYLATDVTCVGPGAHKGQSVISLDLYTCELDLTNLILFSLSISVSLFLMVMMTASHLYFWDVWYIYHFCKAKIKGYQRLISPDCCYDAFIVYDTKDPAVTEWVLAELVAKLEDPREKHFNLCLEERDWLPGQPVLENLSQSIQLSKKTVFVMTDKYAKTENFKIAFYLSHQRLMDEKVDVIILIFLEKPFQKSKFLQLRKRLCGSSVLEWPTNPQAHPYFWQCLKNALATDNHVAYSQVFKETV
From the text: (§1) The building blocks and synthesized conjugates were initially assessed for their receptor-specific activities toward NOD2, TLR7 and TLR8 using the commercially available HEK-Blue NOD2, TLR7 and TLR8 reporter cell lines. These cell lines were derived from HEK293 cells by cotransfection of human NOD2/TLR7/TLR8 and an NF-κB-inducible secreted embryonic alkaline phosphatase (SEAP). Activation of NOD2/TLR7/TLR8, and subsequently of NF-κB, leads to the expression and secretion of SEAP, the levels of which can be quantified colorimetrically. […]
(§2) 3.1. Hek-Blue NOD2, TLR7 and TLR8 cells.
(§3) HEK-Blue NOD2, TLR7, and TLR8 cells (Invivogen, San Diego, CA, USA) were cultured according to the manufacturer instructions in Dulbecco’s modified Eagle’s medium (Sigma-Aldrich, St. Louis, MO, USA) supplemented with 10% heat-inactivated fetal bovine serum (Gibco), 2 mM L-glutamine (Sigma-Aldrich), 100 U/mL penicillin (Sigma-Aldrich), 100 µg/mL streptomycin (Sigma-Aldrich), and 100 µg/mL Normocin (Invivogen) for two passages. All subsequent passages of NOD2 and TLR8 cells were cultured in medium additionally supplemented with 100 µg/mL Zeocin and 30 µg/mL Blasticidin (Invivogen) and of TLR7 cells with 100 µg/mL Zeocin and 10 µg/mL Blasticidin. […]
(§4) The tested compounds were dissolved in DMSO and further diluted in culture medium to the desired final concentrations, such that the final DMSO concentration never exceeded 0.1%. […]
(§5) 3.4 NOD2/TLR7/TLR8 NF-kB reporter assay
(§6) HEK-Blue NOD2 cells (25,000 cells/well), TLR7 and TLR8 cells (40,000 cells/well) were seeded in 96-well plates in 100 µL HEK-Blue detection medium (Invivogen, San Diego, CA, USA) and treated with […]
(§7) corresponding vehicle (0.1% DMSO). After 18 h of incubation (37 °C, 5% CO2), secreted embryonic

[2] = target: T2, human NOD2 (Homo sapiens, UniProt Q9HC29); test: HEK-Blue NOD2 NF-κB SEAP reporter assay; type: cell-based; settings: HEK-Blue NOD2 cells
T2 construct: host or cells: HEK-Blue NOD2 (HEK293-derived)
From the text: as §1, §2, §3, §4, §5, §6, §7

[3] = Kinetic solubility in PBS (UHPLC, method of Hoelke et al.); type: physicochemical; settings: for solubility kinetic: PBS, aqueous with cosolvent or surfactant or cyclodextrin, kinetic from dmso stock, 5% DMSO
Description: Second, the kinetic solubility of all individual building blocks (compounds 4-7) and conjugates was determined (results are listed in Table 1) in order to highlight how fine-tuning of linker traits can impact this physicochemical property. Kinetic solubility refers to the maximum solubility of a compound when it precipitates from a supersaturated solution, which is metastable and not in equilibrium; it was measured using the method described by Hoelke et al.[34] The length and composition of the linker as well as linkage site are important for activity and physicochemical characteristics of conjugates, which in turn affect their pharmacokinetic profiles. In general, the benzylic COOH was exploited exclusively as the linker attachment site in TLR7 agonist-featuring conjugates, while two potential linkage sites were considered in the structure of NOD2 agonist. […] In conjugates 22-24 and 29, the moieties were connected via the γ-COOH group of the NOD2 agonist. […] It has to be kept in mind that among the polyalkylethers, the structural requirements for aqueous solubility are poised toward the (−OCH2CH2−)n unit while (−OCH2CH2CH2−)n is not beneficial in this respect.[35] […]
suspension was filtered through a syringe filter (0.45 μm), diluted 2.25-fold with acetonitrile, and analyzed with UHPLC. The solubility was quantified with a five-point calibration curve from 500 to 0.8 μM generated by dilution of the original DMSO solution into a 1:1 mixture of acetonitrile and PBS. The content of DMSO in all solutions was fixed to 5% by adding the respective amounts of DMSO. The column used was Waters Acquity UPLC BEH C18 (1.7 μm, 2.1 × 50 mm). The eluent was a mixture of 0.1% TFA in water (A) and acetonitrile (B), with a gradient of (%B): 0−6 min, 5−95%; 6−8 min, 95%; 8−8.5 min, 95−5%. The column was thermostated at 40 °C.
3.1. Hek-Blue NOD2, TLR7 and TLR8 cells. […]
(BioTek Synergy microplate reader; Winooski, VT, USA). EC50 values were calculated using Prism

[4] = target: T3, human TLR8 (Homo sapiens, UniProt Q9NR97); test: HEK-Blue TLR8 NF-κB SEAP reporter assay; type: cell-based; settings: HEK-Blue TLR8 cells, 18 h, eight concentrations (1 nM to 10 μM), mean ± SEM
T3 construct: host or cells: HEK-Blue TLR8 (HEK293-derived)
T3 sequence (Q9NR97 27-1041): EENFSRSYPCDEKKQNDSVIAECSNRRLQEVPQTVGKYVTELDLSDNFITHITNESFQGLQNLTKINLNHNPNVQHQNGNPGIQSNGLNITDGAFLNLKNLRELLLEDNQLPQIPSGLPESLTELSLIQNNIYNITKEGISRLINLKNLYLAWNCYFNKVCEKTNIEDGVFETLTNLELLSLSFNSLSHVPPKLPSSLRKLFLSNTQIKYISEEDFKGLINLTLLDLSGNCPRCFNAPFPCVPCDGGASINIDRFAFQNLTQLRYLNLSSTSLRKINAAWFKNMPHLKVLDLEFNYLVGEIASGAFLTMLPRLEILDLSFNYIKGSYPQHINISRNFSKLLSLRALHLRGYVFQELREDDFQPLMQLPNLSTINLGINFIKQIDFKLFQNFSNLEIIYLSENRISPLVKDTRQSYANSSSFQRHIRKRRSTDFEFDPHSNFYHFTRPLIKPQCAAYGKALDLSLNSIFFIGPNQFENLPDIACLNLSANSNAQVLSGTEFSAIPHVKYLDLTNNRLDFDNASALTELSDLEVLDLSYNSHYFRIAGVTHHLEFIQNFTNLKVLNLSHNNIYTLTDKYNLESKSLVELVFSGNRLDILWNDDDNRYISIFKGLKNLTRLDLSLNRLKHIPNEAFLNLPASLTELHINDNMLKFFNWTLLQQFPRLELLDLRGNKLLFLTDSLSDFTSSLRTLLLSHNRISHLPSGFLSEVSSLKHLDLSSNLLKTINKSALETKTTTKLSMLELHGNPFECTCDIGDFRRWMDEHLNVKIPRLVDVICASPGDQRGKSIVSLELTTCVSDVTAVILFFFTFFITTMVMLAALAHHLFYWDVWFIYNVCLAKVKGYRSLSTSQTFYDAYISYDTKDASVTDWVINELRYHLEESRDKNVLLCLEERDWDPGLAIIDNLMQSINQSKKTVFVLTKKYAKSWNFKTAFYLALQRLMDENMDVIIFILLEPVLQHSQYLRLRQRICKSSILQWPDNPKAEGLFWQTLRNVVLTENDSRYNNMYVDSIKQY
From the text: as §1, §2, §3, §4, §5, §6, §7

[5] = 18 h, eight concentrations (1 nM to 10 μM), mean ± SEM

T2 sequence (Q9HC29 whole entry): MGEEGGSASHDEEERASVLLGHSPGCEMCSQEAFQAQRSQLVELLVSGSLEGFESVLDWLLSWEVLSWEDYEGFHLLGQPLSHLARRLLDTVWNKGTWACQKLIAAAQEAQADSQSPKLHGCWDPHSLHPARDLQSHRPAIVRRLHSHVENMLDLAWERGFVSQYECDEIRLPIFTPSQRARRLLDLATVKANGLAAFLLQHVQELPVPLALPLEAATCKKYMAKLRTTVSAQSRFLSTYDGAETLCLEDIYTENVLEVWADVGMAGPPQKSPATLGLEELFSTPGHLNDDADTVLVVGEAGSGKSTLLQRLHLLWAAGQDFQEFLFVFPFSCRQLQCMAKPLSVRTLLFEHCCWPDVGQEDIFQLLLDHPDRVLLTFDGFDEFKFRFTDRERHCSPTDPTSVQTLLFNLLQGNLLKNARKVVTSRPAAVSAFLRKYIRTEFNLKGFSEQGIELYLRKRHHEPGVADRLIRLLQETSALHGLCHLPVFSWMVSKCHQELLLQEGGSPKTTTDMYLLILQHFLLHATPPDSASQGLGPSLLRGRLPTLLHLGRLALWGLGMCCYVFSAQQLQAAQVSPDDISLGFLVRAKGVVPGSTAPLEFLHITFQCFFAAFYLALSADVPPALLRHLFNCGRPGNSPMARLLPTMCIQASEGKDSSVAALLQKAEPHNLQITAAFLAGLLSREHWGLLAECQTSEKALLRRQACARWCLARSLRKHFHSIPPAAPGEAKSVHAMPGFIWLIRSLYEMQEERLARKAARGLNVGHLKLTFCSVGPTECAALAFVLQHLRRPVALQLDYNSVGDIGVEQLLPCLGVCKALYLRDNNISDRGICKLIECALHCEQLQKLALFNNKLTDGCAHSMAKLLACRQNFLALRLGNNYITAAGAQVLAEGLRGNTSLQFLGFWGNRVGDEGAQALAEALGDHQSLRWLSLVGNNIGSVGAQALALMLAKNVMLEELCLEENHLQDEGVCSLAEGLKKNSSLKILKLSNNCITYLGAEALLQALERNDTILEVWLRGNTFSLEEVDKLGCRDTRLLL

| SMILES | EC50 [1] [nM] | TLR7 agonistic activity (in words) [1] | EC50 [2, 5] [nM] | solubility kinetic [3] [µM] | Enhancement of TLR7 activity over 22 and 29 ([1]; ratio of EC50 values) [fold] | EC50 [2] [nM] | EC50 [4] [nM] | Boost in solubility over conjugate 2 ([3]; ratio of kinetic solubilities in PBS) [fold] |
| --- | --- | --- | --- | --- | --- | --- | --- | --- |
| CCCCOc1nc(N)c2nc(O)n(Cc3ccc(C(=O)NCCOCCOCCOCCn4cc(CNC(=O)CC[C@@H](NC(=O)[C@@H](NC(=O)CNC(=O)/C=C/c5ccc(O)c(OC)c5)C(C)C)C(=O)OCC)nn4)cc3)c2n1 [compound 29] | 391 | activated TLR7 in the midnanomolar range | > 10000 | 35.4 | – | – | – | – |
| CCCCOc1nc(N)c2nc(O)n(Cc3ccc(C(=O)NCCCOCCOCCOCCCNC(=O)CC[C@@H](NC(=O)[C@@H](NC(=O)CNC(=O)/C=C/c4ccc(O)c(OC)c4)C(C)C)C(=O)OCC)cc3)c2n1 [compound 23] | 165 | activated TLR7 in the midnanomolar range | > 10000 | 38.6 | 2.5 | – | – | – |
| CCCCOc1nc(N)c2nc(O)n(Cc3ccc(C(=O)NCCOCCOCCNC(=O)[C@@H](CCC(=O)OCC)NC(=O)[C@@H](NC(=O)CNC(=O)/C=C/c4ccc(O)c(OC)c4)C(C)C)cc3)c2n1 [compound 26] | 247 | activated TLR7 in the midnanomolar range | > 10000 | 9.2 | – | – | – | – |
| CCOCc1nc2c(N)nc3ccccc3c2n1CC(C)(C)O [Resiquimod (6), Resiquimod, reference compound] | – | – | – | 469 | – | – | – | – |
| CCCCOc1nc(N)c2nc(O)n(Cc3ccc(C(=O)NCCCCCC(=O)Oc4ccc(/C=C/C(=O)NCC(=O)N[C@H](C(=O)N[C@H](CCC(=O)OCC)C(=O)OCC)C(C)C)cc4OC)cc3)c2n1 [compound 1] | 98.6 ± 1.1 | – | 105 ± 2.8 | 1.9 | – | – | – | – |
| CCCCOc1nc(N)c2nc(O)n(Cc3ccc(C(=O)NCCOCCNC(=O)CC[C@@H](NC(=O)[C@@H](NC(=O)CNC(=O)/C=C/c4ccc(O)c(OC)c4)C(C)C)C(=O)OCC)cc3)c2n1 [compound 2] | 21.4 ± 1 | – | > 10000 | 3.67 | – | – | – | – |
| CCCCOc1nc(N)c2nc(O)n(Cc3ccc(C(=O)O)cc3)c2n1 [compound 4, reference compound] | 226 ± 14.5 | – | – | 483 | – | – | – | – |
| CCCCOc1nc(N)c2nc(O)n(Cc3ccc(C(=O)NCCCCCCNC(=O)CC[C@@H](NC(=O)[C@@H](NC(=O)CNC(=O)/C=C/c4ccc(O)c(OC)c4)C(C)C)C(=O)OCC)cc3)c2n1 [compound 24] | 238 | activated TLR7 in the midnanomolar range | 6160 ± 1250 | 2.8 | – | 6200 | – | – |
| CCOC(=O)CCC(NC(=O)C(NC(=O)CNC(=O)C=Cc1ccc(O)c(OC)c1)C(C)C)C(=O)OCC (stereo not drawn) [compound 5] | – | – | – | 415 | – | – | – | – |
| CCOCc1nc2c(N)nc3ccccc3c2n1CC(C)(C)N [compound 7, reference compound] | 1820 ± 97 | – | – | 337 | – | – | 5900 ± 1790 | – |
| CCCCOc1nc(N)c2nc(O)n(Cc3ccc(C(=O)NCCOCCOCCNC(=O)CC[C@@H](NC(=O)[C@@H](NC(=O)CNC(=O)/C=C/c4ccc(O)c(OC)c4)C(C)C)C(=O)OCC)cc3)c2n1 [compound 22] | 419 | activated TLR7 in the midnanomolar range | > 10000 | 85.4 | – | – | – | ~25 |
